Data as given in patent US12419304B2, “Aryl sulfide comprising benzylamine, synthesis method and application thereof” (Shandong Kangqiao Bio-Technology Co., Ltd., priority 2019, dated 2025).
Where two headings read alike, the source gives them in different places.

System: Tetranychus cinnabarinus
Experiment: Activity test of Tetranychus cinnabarinus (spray on inoculated bean seedlings, mortality after 72 hours)
Type: in vivo
Details: for pest or weed control at 100 ppm: 100 ppm (100 mg/L); for pest or weed control at 100 ppm / pest or weed control at 6.25 ppm / pest or weed control at 25 ppm: whole plant sprayed, 72 hours, read-out: lethal rate against mites; for pest or weed control at 6.25 ppm: 6.25 ppm (6.25 mg/L); for pest or weed control at 25 ppm: 25 ppm (25 mg/L)
Description: Activity Test of Tetranychus cinnabarinus
The compound under test was dissolved in acetone and diluted to desired concentration with 0.1% Tween 80 solution with acetone content not exceeding 5%.
One true leaf was removed from the bean seedlings having two true leaves. Tanyanychus cinarinus was inoculated and the cardinal number thereof investigated. The whole plant was sprayed with a handheld sprayer, and each treatment was repeated for 3 times. After treatment, the bean seedlings were cultured in a constant temperature room. 72 hours later, the number of live mites was investigated and the mortality rate was calculated. The number of Tetranychus cinnabarinus was 100-200 per inoculation. Mortality=(number of inoculated mites−number of live mites after treatment)[…]×100%.

[1] = Concentration 3.12 ppm, acaricidal parallel test with bifenazate and cyflumetofen, read-out: Mortality %

Row | SMILES | mortality at 3.12 ppm | pest or weed control at 100 ppm | pest or weed control at 6.25 ppm | pest or weed control at 25 ppm | mortality at 3.12 ppm [1]
1 | COc1ccc(-c2ccccc2)cc1NNC(=O)OC(C)C [Bifenazate, bifenazate, reference compound] | 85% |  |  |  | 
2 | Cc1cc(F)c(NCc2ccccc2C#N)cc1SCC(F)(F)F [Compound 33] |  | > 90% |  |  | 
3 | COC(=O)c1ccccc1CNc1cc(SCC(F)(F)F)c(C)cc1F [Compound 53] |  | > 90% | > 90% | > 90% | 99%
4 | COC(=O)c1ccccc1CNc1cc([S+]([O-])CC(F)(F)F)c(C)cc1F (centres unmarked) [Compound 54] |  | > 90% | > 90% | > 90% | 100%
5 | Cc1cc(F)c(NCc2cccc(F)c2)cc1SCC(F)(F)F [Compound 229, 2-fluoro-N-(3-fluorobenzyl)-4-methyl-5-((2,2,2-trifluoroethyl)thio) aniline] |  | > 90% |  |  | 
6 | Cc1cc(F)c(NCc2ccc(Cl)c(Cl)c2)cc1SCC(F)(F)F [Compound 247] |  | > 90% |  |  | 
7 | Cc1cc(F)c(NCc2ccc(Cl)c(F)c2)cc1SCC(F)(F)F [Compound 249, N-(4-chloro-3-fluorobenzyl)-2-fluoro-4-methyl-5-((2,2,2-trifluoroethyl)thio) aniline] |  | > 90% |  |  | 
8 | COC(=O)c1cc(F)ccc1CNc1cc(SCC(F)(F)F)c(C)cc1F [Compound 303, 5-Fluoro-2-((((2-Fluoro-4-methyl-5-(2,2,2-trifluoroethyl)thio)phenyl)amino)methyl) benzoate] |  | > 90% | > 90% | > 90% | 99%
9 | COC(=O)c1cc(F)ccc1CNc1cc([S+]([O-])CC(F)(F)F)c(C)cc1F (centres unmarked) [Compound 304] |  | > 90% | > 90% | > 90% | 98%
10 | COC(=O)c1cc(F)ccc1CNc1cc(SCC(F)(F)F)c(Cl)cc1F [Compound 1165] |  | > 90% | > 90% | > 90% | 99%
11 | COC(=O)c1cc(F)ccc1CNc1cc([S+]([O-])CC(F)(F)F)c(Cl)cc1F (centres unmarked) [Compound 1166] |  | > 90% | > 90% | > 90% | 98%
12 | COC(=O)c1ccccc1CNc1cc(SCC(F)(F)F)c(Cl)cc1F [Compound 1202, 2-((((4-chloro-2-fluoro-5-((2,2,2-trifluoroethyl)thio)phenyl)amino)methyl) benzoate] |  | > 90% | > 90% | > 90% | 97%
13 | COC(=O)c1ccccc1CNc1cc([S+]([O-])CC(F)(F)F)c(Cl)cc1F (centres unmarked) [Compound 1203] |  | > 90% | > 90% | > 90% | 98%
14 | COCCOC(=O)C(C#N)(C(=O)c1ccccc1C(F)(F)F)c1ccc(C(C)(C)C)cc1 (centres unmarked) [Cyflumetofen, cyflumetofen, reference compound] | 72% |  |  |  | 
